Results on twelve molecules are retold here after ChEMBL document CHEMBL1201862, “PubChem BioAssay data set” (2004).

Structures are written as SMILES.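 Five compound concentrations were applied to cells in 96-well plates for 48 hours; endpoints were derived by simple linear interpolation of the resulting dose-response curve. GI50 marks 50% less growth.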 Active and inactive are the calls of the source. No stated cut-off is given here; in the data, active = GI50 up to about 1.1 µM and inactive = higher.

Some test systems named below: ACHN; COLO 205; HCT-15; HT-29; IGROV-1; Malme-3M; OVCAR-3; OVCAR-5; OVCAR-8; SF-268; SF-539; SK-MEL-5; SN12C; SNB-19; SR; TK-10; U-251; UO-31; NCI/ADR-RES.
Holding throughout (test): growth of human tumour cells (NCI), 48 h

With `NC1=C(Br)C(=O)c2ncccc2C1=O`, the GI50 with ACHN is 0.406 µM (active); with COLO 205 it was 1.71 µM (inactive); with HCT-15, 0.352 µM; in the assay on HT-29, 1.69 µM (inactive); in the assay on IGROV-1, 1.11 µM (active); in the assay on Malme-3M it was 0.466 µM (active). Further, the GI50 was 1.09 µM (active) with OVCAR-3; 1.95 µM (inactive) in the assay with OVCAR-5; 0.531 µM (active) with OVCAR-8; 0.42 µM (active) in the assay on SF-268; 0.189 µM (active) with SF-539; 0.284 µM (active) in the assay with SK-MEL-5. In addition, the GI50 was 0.815 µM (active) in the assay on SN12C; 1.25 µM (inactive) in the assay on SNB-19; 0.173 µM (active) in the assay with SR; 2.62 µM (inactive) in the assay on TK-10; 0.177 µM (active) in the assay with U-251; 0.316 µM (active) with UO-31.
`C[N+](C)(C)Cc1c(CC#N)[nH]c2ccccc12`: the GI50 with ACHN is > 100 µM (inactive); in the assay with COLO 205, > 100 µM (inactive); in the assay with HCT-15 it was over 100 µM; in the assay on HT-29 it was > 100 µM (inactive); in the assay on IGROV-1 it was > 100 µM (inactive); in the assay on Malme-3M, > 100 µM (inactive). For the same molecule, the GI50 in the assay with OVCAR-3, in the assay with OVCAR-5, with OVCAR-8, in the assay with SF-268, in the assay on SF-539 and in the assay with SK-MEL-5 was > 100 µM (inactive) throughout. Further, the GI50 is > 100 µM (inactive) in the assay on SN12C; > 100 µM (inactive) in the assay with SNB-19; 44.6 µM (inactive) in the assay with SR; > 100 µM (inactive) with TK-10; > 100 µM (inactive) with U-251; 76.7 µM (inactive) with UO-31.
As for `O=C(Cn1c2c(c3ccccc31)CCCC2)N1CCCC1`, the GI50 was > 100 µM (inactive) in the assay on ACHN; > 100 µM (inactive) in the assay with COLO 205; 80.7 µM in the assay on HCT-15; > 100 µM (inactive) in the assay on HT-29; > 100 µM (inactive) with IGROV-1; > 100 µM (inactive) in the assay with Malme-3M. The GI50 in the assay on NCI/ADR-RES is 96.4 µM (inactive); in the assay with OVCAR-3, 83.9 µM (inactive); in the assay on OVCAR-5 it was > 100 µM (inactive); in the assay with OVCAR-8, > 100 µM (inactive); with SF-539, 69.8 µM (inactive); in the assay on SK-MEL-5 it was 54.3 µM (inactive). Also, the GI50 was > 100 µM (inactive) in the assay on SN12C; > 100 µM (inactive) in the assay with SNB-19; 88.9 µM (inactive) with SR; > 100 µM (inactive) with TK-10; 38.4 µM (inactive) in the assay on UO-31.
On to `CCNCCNC(=O)c1ccc(I)cc1`, for which the GI50 is > 100 µM (inactive) with ACHN; over 100 µM in the assay with HCT-15; > 100 µM (inactive) with HT-29; > 100 µM (inactive) with IGROV-1; > 100 µM (inactive) with NCI/ADR-RES; > 100 µM (inactive) with OVCAR-3. Further, the GI50 with OVCAR-5, in the assay with OVCAR-8, with SF-268, in the assay with SF-539, with SK-MEL-5 and in the assay with SN12C was > 100 µM (inactive) each time. Also, the GI50 with SNB-19 was > 100 µM (inactive); with SR, > 100 µM (inactive); in the assay on TK-10 it was > 100 µM (inactive); in the assay on U-251 it was > 100 µM (inactive); in the assay on UO-31 it was 58.6 µM (inactive).
Regarding `O=C1COc2cc(NC(=S)Nc3ccccc3)ccc2N1`, the GI50 is > 100 µM (inactive) in the assay with ACHN; > 100 µM (inactive) in the assay on COLO 205; over 100 µM in the assay with HCT-15; > 100 µM (inactive) with HT-29; > 100 µM (inactive) in the assay on IGROV-1; > 100 µM (inactive) in the assay on Malme-3M. In addition, the GI50 in the assay with OVCAR-3, in the assay with OVCAR-5, in the assay on OVCAR-8, in the assay with SF-268, in the assay with SF-539 and in the assay with SK-MEL-5 was > 100 µM (inactive) throughout. Further, the GI50 in the assay on SN12C, in the assay with SNB-19, in the assay on SR, in the assay with TK-10, in the assay with U-251 and with UO-31 was > 100 µM (inactive) in each case.
Regarding `C/C(CC(=O)N(C(C)C)C(C)C)=N\NC(=O)c1ccncc1`, the GI50 is > 100 µM (inactive) in the assay with ACHN; > 100 µM (inactive) in the assay on COLO 205; over 100 µM with HCT-15; > 100 µM (inactive) in the assay with HT-29; > 100 µM (inactive) in the assay with IGROV-1; > 100 µM (inactive) in the assay with Malme-3M. In addition, the GI50 with OVCAR-3, with OVCAR-8, in the assay on SF-268, in the assay on SF-539, in the assay on SK-MEL-5 and in the assay on SN12C was > 100 µM (inactive) throughout. For the same molecule, the GI50 in the assay with SNB-19, with SR, in the assay with U-251 and in the assay with UO-31 was > 100 µM (inactive) each time.
For the molecule `COc1ccc(/C(Cl)=C(\C=N/O)c2ccc(OC)c(OC)c2)cc1OC`, the GI50 was > 100 µM (inactive) with ACHN; > 100 µM (inactive) in the assay with COLO 205; 82 µM with HCT-15; > 100 µM (inactive) in the assay on HT-29; > 100 µM (inactive) in the assay on IGROV-1; > 100 µM (inactive) in the assay on Malme-3M. Besides, the GI50 with OVCAR-3, in the assay with OVCAR-5, in the assay with OVCAR-8, in the assay on SF-268, in the assay with SF-539 and with SK-MEL-5 was > 100 µM (inactive) in each case. Moreover, the GI50 with SN12C, with SNB-19, with SR, in the assay with TK-10, in the assay on U-251 and in the assay on UO-31 was > 100 µM (inactive) throughout.
As to `O=C(c1ccccc1)c1nc2c(Cl)ccc(Cl)c2cc1C(Br)Br`, the GI50 is 0.243 µM (active) in the assay on ACHN; 3.19 µM (inactive) in the assay on COLO 205; 0.69 µM with HCT-15; 2.75 µM (inactive) in the assay with IGROV-1; 2.19 µM (inactive) in the assay with Malme-3M; 1.55 µM (inactive) in the assay on OVCAR-3. The GI50 with OVCAR-5 is 1.08 µM (active); with OVCAR-8, 1.44 µM (inactive); in the assay with SF-268, 1.41 µM (inactive); with SF-539, 0.484 µM (active); with SK-MEL-5 it was 1.34 µM (inactive); in the assay with SN12C, 1.17 µM (inactive). The GI50 in the assay with SNB-19 is 1.54 µM (inactive); in the assay with SR, 1.59 µM (inactive); with TK-10 it was 1.43 µM (inactive); in the assay on U-251 it was 1.11 µM (active); in the assay with UO-31 it was 1.29 µM (inactive).
`COc1c(C)cc2c(c1O)C1NC(C2)[C@H](O)N2C3COC(=O)[C@@]4(CS[C@@H](c5c(OC(C)=O)c(C)c6c(c53)OCO6)C12)NCCC1=C4NC2C=CC=CC12` (some centres undefined): the GI50 in the assay on ACHN is < 0.01 µM (active); in the assay on COLO 205 it was < 0.01 µM (active); with HCT-15, 0.0104 µM; in the assay on HT-29 it was < 0.01 µM (active); in the assay with IGROV-1, < 0.01 µM (active); in the assay on Malme-3M it was < 0.01 µM (active). Further, the GI50 in the assay with OVCAR-3, in the assay with OVCAR-8, in the assay on SF-268, in the assay with SF-539, in the assay on SK-MEL-5 and with SN12C was < 0.01 µM (active) throughout. Moreover, the GI50 was < 0.01 µM (active) with SNB-19; < 0.01 µM (active) in the assay with SR; < 0.01 µM (active) in the assay with TK-10; < 0.01 µM (active) in the assay on U-251; 0.0148 µM (active) in the assay with UO-31.
As to `Cc1ccc(C)c(NC(=O)C(=O)C(C2C(C)CC(=O)C2CC(=O)O)[N+](=O)[O-])c1` (centres undefined), the GI50 with ACHN is > 100 µM (inactive); with COLO 205, > 100 µM (inactive); in the assay on HCT-15, over 100 µM; in the assay on HT-29, > 100 µM (inactive); with IGROV-1, > 100 µM (inactive); with Malme-3M, > 100 µM (inactive). Further, the GI50 with OVCAR-3, with OVCAR-5, in the assay with SF-268, in the assay with SF-539, in the assay with SK-MEL-5 and with SN12C was > 100 µM (inactive) each time. Besides, the GI50 in the assay with SNB-19, in the assay on SR, with TK-10, with U-251 and in the assay on UO-31 was > 100 µM (inactive) each time.
On to `O=C(/C=C/c1c(O)ccc2ccccc12)c1ccc([N+](=O)[O-])cc1`, for which the GI50 in the assay on ACHN was 22.1 µM (inactive); in the assay with COLO 205, 33.1 µM (inactive); with HCT-15 it was 25.2 µM; in the assay with HT-29, 54.1 µM (inactive); in the assay with IGROV-1 it was > 60.8 µM (inactive); in the assay on Malme-3M, 22.9 µM (inactive). The GI50 with OVCAR-3 was 17.3 µM (inactive); in the assay on OVCAR-5, > 100 µM (inactive); in the assay on OVCAR-8 it was 37.2 µM (inactive); with SF-268 it was 41.5 µM (inactive); in the assay on SF-539 it was 37.8 µM (inactive); with SK-MEL-5, 19.4 µM (inactive). In addition, the GI50 was 20 µM (inactive) in the assay with SN12C; > 88.9 µM (inactive) with SNB-19; 32.7 µM (inactive) with SR; > 53.5 µM (inactive) in the assay with TK-10; 46.5 µM (inactive) in the assay with U-251; > 43 µM (inactive) with UO-31.
For the molecule `CC1(C(=O)O)C[C@](C)(C(=O)OCc2ccccc2)C[C@](C)(C(=O)OCc2ccccc2)C1` (some centres undefined), the GI50 with ACHN is 22.9 µM (inactive); in the assay on COLO 205, 18.5 µM (inactive); with HCT-15, 25.5 µM; with HT-29, 31.8 µM (inactive); in the assay with IGROV-1 it was 22.8 µM (inactive); in the assay with Malme-3M it was 63.2 µM (inactive). Moreover, the GI50 in the assay with NCI/ADR-RES was 29.4 µM (inactive); in the assay on OVCAR-3, 26.4 µM (inactive); with OVCAR-5 it was 34.3 µM (inactive); in the assay with OVCAR-8 it was 34.5 µM (inactive); in the assay with SF-268 it was 47.9 µM (inactive); in the assay with SF-539 it was 25.8 µM (inactive). Further, the GI50 with SK-MEL-5 was 32.7 µM (inactive); in the assay on SN12C, 30.2 µM (inactive); in the assay with SNB-19 it was 45.7 µM (inactive); with SR, 29.1 µM (inactive); in the assay on TK-10 it was 43.3 µM (inactive); with UO-31 it was 21.9 µM (inactive).
